Tests used:
[1] = tested on: U87MG glioma cells; assay: Quantitative RT-PCR gene expression, U87MG; type: cell-based, human
Procedure: (§1) Quantitative RT-PCR analysis of antioxidant enzymes (SOD and CAT), oxidative stress marker (Nrf-2), and apoptosis markers (BCL2 and Caspase-9). Total RNA from all experimental groups was isolated using RNA Express reagent (HiMedia, India) and the respective cDNAs were synthesized using a Hi-c-DNA Synthesis Kit (HiMedia, India). Quantitative RT-PCR was carried out using a CFX 96 thermocycler (Bio-Rad, Hercules, CA) and TB Green Premix Ex Taq 1 (Takara Bio, Otsu, Japan) to detect mRNA. Independent experiments were conducted in triplicate. The cycle threshold (Ct), representing a positive PCR result, is defined as the cycle number at which a sample's fluorescence intensity crossed the threshold automatically determined by the CFX 96.
(§2) The relative changes in gene expression were calculated with the 2^−ΔΔCt method, wherein ΔΔCt=(Cttarget gene−Ctβ-actin) sample−([…]) calibrator.
(§3) The qPCR analyses were performed to measure the expression levels of genes associated with anti-Warburg effect. The total RNA was extracted from the cell lysates and brain tissues of all the experimental groups using TRIZOL reagent (Takara Bio, Shiga, Japan). Quantitative RT-PCR was carried out using a CFX96 Real Time PCR Detection System (Bio-Rad, California, USA) and TB Green Premix Ex Taq I (Takara Bio, Shiga, Japan) to detect messenger ribonucleic acid (mRNA).
Independent experiments were conducted in triplicate. The relative changes in gene expression were calculated with the 2^−ΔΔCt method, where ΔΔCt=Sample (Cttarget gene−Ctβ-actin)−Calibrator (Cttarget gene−Ctβ-actin).

[2] = tested on: HEK293T (Human Embryonic Kidney) cells; assay: Trypan blue exclusion cytotoxicity on normal cell line; type: cell-based; conditions: treated at IC50 values determined in U87MG and C6, 24 hours
Procedure: Cytotoxicity on a normal cell line.
Furthermore, to check for the cytotoxicity of the drugs, a trypan blue dye exclusion assay was performed on a normal cell line, HEK293T, using the IC50 values of each drug, individually and in combination, as determined in U87MG and C6 cells and shown in Table 2.

[3] = tested on: rat brain tissue; assay: Gene expression (qRT-PCR) in brain tissue of glioma-induced rats; type: in vivo; conditions: i.p. 7 days; vs tumor-control
Procedure: as §1, §2
as §3, with “(mRNA). […]” for “(mRNA).”

[4] = tested on: VEGF; assay: Immunohistochemistry of tumor sections, VEGF; type: in vivo, rat; conditions: i.p. 7 days; tumor-control 73.58%
Procedure: Immunohistochemistry. For immunohistochemistry (IHC) analysis, 4 μm thick tissue sections were deparaffinized in xylene and hydrated by immersing in a series of graded ethanol concentration (100%, 95%, 75% and 50%). Endogenous peroxidase activity was blocked by incubating sections in 3% H2O2 solution prepared in methanol at room temperature for 10 minutes and were washed with PBS twice for 5 minutes each. Antigen retrieval was performed by immersing the slides in 300 ml of retrieval buffer (10 mM citrate buffer, pH 6.0) for one hour at 100° C. and were rinsed twice in PBS. Sections were then incubated with approximately 100 μl diluted primary antibodies of Ki67 (1:100 dilution, Elabscience, Wuhan, China) and Vascular Endothelial Growth Factor (VEGF) (1:100 dilution, Elabscience, Wuhan, China) for 30 minutes at room temperature. The slides were then washed twice with PBS and were then incubated with approximately 100 μl of diluted secondary antibody (Cat No. E-IR-R213, Elabscience, Wuhan, China) at room temperature for 30 minutes. Slides were then washed in PBS for 5 minutes, followed by incubation with approximately 100 μl diluted Horse Radish Peroxidase (HRP) conjugate for 30 minutes. […] The staining intensities were quantified using IHC Profiler, a plugin in ImageJ software, to determine the H-score (Histo score).

[5] = LC/MS of drugs and active metabolites in plasma and brain (blood brain barrier); type: in vivo, rat
Procedure: T, M & E (Sigma Aldrich, St. Louis, USA) were dissolved in sterile water and administered intra peritoneally for 7 days (from day 21 to day 27; where the day of tumor induction is considered day 0) to a rat with the dose specified in Table-4 (TME: 50+80+150 mg/kg body weight). After 7 days of treatment (on day 28), blood (plasma) was collected and the rat was euthanized, immediately the brain tissue was collected and stored at −80° C. The brain tissue was then processed accordingly to measure active metabolites through LC/MS.
To 100 μl of plasma or brain (0.5 g crushed in 0.5 mL of sterile water), 20 μl of the working internal standard solution was added. The samples were deproteinised with acetonitrile and the supernatant (100 μl) was injected into the chromatographic system. For the brain, as described above, ciprofloxacin solution (20 μl) was added to 100 μl of crushed brain. Then, repeating the plasma sample process, 20 μl of the solution was injected into the chromatographic system.

[6] = tested on: human hepatocellular carcinoma (HepG2) cells; assay: MTT cell viability assay, HepG2; type: cell-based; conditions: 24 hours
Procedure: Cell lines and culture conditions. A human hepatocellular carcinoma (HepG2) and ovarian cancer (SKOV3) cells were obtained from National Centre for Cell Science (NCCS), Pune, India. The cells HepG2 and SKOV3 were sub-cultured in Eagle's Minimum Essential Medium (EMEM) and McCoy's 5a supplemented with 10% FBS at 5% CO2 and 37° C. […] The cells were allowed to attach 70% to the surface prior to treatment. A stock solution of all the drugs (10 mg/ml) was made in distilled H2O and diluted to the required concentrations. Suspensions were aspirated 10 times before treatment. Cells treated with vehicle control were used as a control.

[7] = tested on: TBARS in C6 cells; assay: TBARS (MDA) assay, C6; type: cell-based, rat; conditions: vs control
Procedure: Determination of TBARS levels. TBARS (thiobarbituric acid reactive substances), by-products of lipid peroxidation, were analyzed by measuring the concentration of malondialdehyde (MDA). The levels of MDA were measured in cell lysates using TBARS assay (Catalog No. 10009055, Cayman Chemical, Ann Arbor, USA). The concentration of lipid peroxides was calculated as an MDA equivalent using the extinction coefficient for the MDA-TBA complex of 1.56×10^5 M−1 cm^−1 at 532 nm.

[8] = tested on: SOD, CAT, GPx, GSH in C6 glioma cells; assay: Antioxidant marker kits (SOD, CAT, GPx, GSH), C6; type: cell-based, rat; conditions: vs control
Procedure: Antioxidant markers. […] All experiments were carried out according to the manufacturer's instructions. Three independent biological replicates were performed for each condition.

[9] = triple combination TME 50+80+150 mg/kg i.p. 7 days, NA = not detected

SMILES | mRNA expression levels of BCL2 [1] | mRNA expression levels of Caspase-9 [1] | mRNA transcript levels of Nrf-2 [1] | toxicity in normal HEK293T cells [2] | mRNA transcripts of the antioxidant genes (SOD and CAT) [1] | gene expression levels of Nrf-2 and HIF-1α [3] | cytoplasmic positivity for VEGF (H-score) [4] | transport across the blood brain barrier, in words ([5]; administered individually and in combination) | Detected mass in LC-MS Brain ([5]; individually treated T, M and E, i.p. 7 days, NA = not detected) | Detected mass in LC-MS Brain [5, 9] | Detected mass in LC-MS Plasma [5, 9] | cell viability (MTT), in words [6] | TBARS levels [7] | concentrations of antioxidant markers SOD, CAT, GPx, and GSH [8]
CN(C)C(=N)N=C(N)N.Cl [MET, 3-(diaminomethylidene)-1,1-dimethylguanidine; hydrochloride] | not found to be statistically significant | not found to be statistically significant | did not have any significant effect |  |  |  |  |  |  |  |  |  |  | 
O=C(O[C@@H]1Cc2c(O)cc(O)cc2O[C@@H]1c1cc(O)c(O)c(O)c1)c1cc(O)c(O)c(O)c1 [EGCG, [(2R,3R)-5,7-dihydroxy-2-(3,4,5-trihydroxyphenyl)-3,4-dihydro-2H-chromen-3-yl] 3,4,5-trihydroxybenzoate] | not found to be statistically significant | not found to be statistically significant | did not have any significant effect | significant reduction in toxicity | significant up-regulation | reduced expression | 44.45% | crossed the BBB in its native form | 466.11 | 456.11 | 452.91 | reduction in cell viability in a dose-dependent fashion | significantly elevated | significantly enhanced
